Entries after “also recorded” stand apart in the source; their conditions may differ.
Tested on: total glutathione levels
Assay: Total glutathione in striatum and liver of rats after CHX depletion
Type: in vivo, Sprague-Dawley rats
Conditions: CHX 75 mg/kg i.p.
Procedure: Male Sprague-Dawley rats aged nine weeks and weighing an average of 390 g, were used in the study. Animals were maintained on a twelve hour light-dark cycle with water and food ad libitum. Two animals were housed per cage with room temperature maintained at 22° C.
All pharmacological agents were administered by intraperitoneal injection (i.p.) in a volume of 1 ml/kg, except where otherwise stated. All agents were prepared using saline as a diluent. Brain GSH depletion was performed using cyclohexene-1-one (CHX), administered at 75 mg/kg. Animals were returned to their cage for 90 minutes prior to administration of N-acetyl cysteine (NAC) or N-acetyl cysteine amide (NACA or “AD4”). Animals were killed by decapitation 1 hour after NACA or NAC treatment.
Frontal cortex, striatum and liver samples were immediately excised on ice, weighed and sonicated in SSA buffer (5% sulfosalicylic acid in 100 mM disodium hydrogen orthophosphate, 100 mM sodium dihydrogen orthophosphate and 1 mM EDTA, pH 7.5, 5 mL/g wet tissue). The samples were subsequently centrifuged (22×10^3 g for 10 minutes, 4° C.) and the […] was taken and frozen at −80° C. until analysed.
Total glutathione levels (μmol GSH/gram tissue) were determined in all samples. Samples were assayed according to Baker et al. (1990). Reduced glutathione standards ranging from 0 to 320 ρmol of GSH in 50 μL were prepared in a background buffer identical to the samples (SSA buffer) and then treated in parallel with samples. 50 μl of sample or standard was placed on a 96-well microtiter plate with 100 μL of assay reagent (final concentration in well; 0.15 mM DTNB, 0.2 mM NADPH, 1.0 U glutathione reductase/mL). Plates were assayed for a total of 2 minutes at 414 nm using a Multiskan MCC/340 MK II plate reader and Genesis V3.05 computer software. All chemicals were purchased from Sigma-Aldrich. Statistical evaluation of the data was conducted using analysis of variance (ANOVA).

O=C1C=CCCC1 [CHX, cyclohexene-1-one]
Total glutathione levels in the brain striatum: significant decrease; also recorded: depleted | Total glutathione levels in the liver: significant decrease; also recorded: depleted

From patent US20100099762A1, “COMBINATION THERAPY” (THE MENTAL HEALTH RESEARCH INSTITUTE OF VICTORIA, priority 2006, published 2010)
